The numbers were not newly measured in patent US20260048005A1, “INJECTABLE THERMOSENSITIVE HYDROGELS FOR A SUSTAINED RELEASE OF IRON NANOCHELATORS” (The General Hospital Corporation, priority 2022, published 2026), which cites them from elsewhere.

As a reminder, the half-life is how long it takes for the measured level to halve.

The conditions of this data set: in rodents.

For the molecule `CC(=O)N(O)CCCCCNC(=O)CCC(=O)N(O)CCCCCNC(=O)CCC(=O)N(O)CCCCCN` [DFO, deferoxamine], the half-life was 5 to 15 min.
